1 substance from patent publication US7033829B2, “Method to inhibit cell growth using oligonucleotides” (Trustees of Boston University, priority 2000, dated 2006) can be followed below.

One test concerns SOD2. Description: SOD2 western blot in fibroblasts. The class given is cell-based, human. The conditions noted are these: 100 μM. The protocol:
Fibroblasts (newborn human) were maintained in Dulbecco's Modified Eagle Medium (DMEM) supplemented with 10% calf serum (CS) and 100 μM pTpT or diluent as control. Total cellular proteins were harvested at different intervals after stimulation and processed for western blot analysis. The blot was reacted with anti SOD2 antibodies (The Binding Site, Inc. San Diego, Calif.). […] Coomassie blue-stained residual bands on the gel confirmed uniform loading of the different lanes.
In general terms: Immunoblotting shows a protein as a band on a membrane.

Test [1] has as its system Normal human neonatal fibroblasts. Briefly: Cell growth of normal neonatal fibroblasts. The conditions noted are these: 100 μM. The class given is cell-based. On the procedure:
Normal human neonatal fibroblasts were plated in Falcon P35 culture dishes at a density of 9×10^4 cells/dish. The culture medium was DME+10% calf serum, 2 ml per plate. One day after plating, cultures were supplemented with either 100 μM T2 in DME or 100 μM A2 in DME, or water (control). Two plates were collected and counted before the additions to give a starting, or “day 0,” reading. Duplicate plates of each condition were harvested through five days after addition of the supplements and cell number determined. All cell counts were done by Coulter™ Counter.
In a second experiment, normal human neonatal fibroblasts were plated and cultured, as described above in Example 1 for SCC12F cells. Cultures were supplemented with either 100 μM T2 or water (control), and cells were harvested for cell counts. The cell yield in fibroblast cultures treated with T2 was reduced by 40% compared to that of paired control cultures after three days (FIG. 8). This corresponds to 4 population doublings in this time for control cells, compared with 3.6 doublings for T2-treated cells.

Consider thymidine dinucleotide [pTpT], for which the SOD2 protein induction result in the test on SOD2 was “SOD2 induction was sustained at least through 32 hours”. For the same substance, the “cell yield reduced compared to paired control cultures” value in test [1] (after three days) is 40%. Also, the population doublings in test [1] (three days (control 4)) stood at 3.6.
